{"source": "patent US20240398783A1", "about": "“Compounds and Pharmaceutical Compositions Comprising Inhibitors of Amyloid Peptide Interactions with Glycosaminoglycans, Methods of Treatment and Use Thereof” (Gismo Therapeutics, Inc., priority 2021, published 2024)", "note": "Where a name gives a salt, the structure may show the parent alone.", "data": [{"target": "T1, Amyloid-beta(1-40) binding to purified human brain membranes (Homo sapiens, UniProt P05067)", "T1 construct": "Beta-amyloid (1-40) from rPeptide (Cat No. A1153) was dissolved in DMSO; purchased rPeptide A1153", "T1 sequence (P05067 672-711)": "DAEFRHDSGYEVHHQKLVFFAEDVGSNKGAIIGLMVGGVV", "assay": "Inhibition of Amyloid-beta(1-40) binding to purified human brain cell membranes (ELISA)", "settings": "Abeta(1-40), read-out: Abeta40/Membrane Activity (IC-50)", "experimental": "Purified human brain cell membranes were prepared by differential centrifugation as follows. Five grams of frozen human brain postmortem tissue (obtained from University of Kentucky Alzheimer's Disease Center Tissue Bank) was homogenized in 50 ml HEPES-Buffered sucrose (0.32M sucrose, 4 mM HEPES pH7.4, protease inhibitors) with a motor driven glass-teflon homogenizer. After removing nuclear and cell debris by centrifugation of homogenates at 1,000×g for 10 min at 4 degree Celsius, post-nuclear supernatant was centrifuged at 100,000×g for 30 minutes to yield the crude membrane pellet. Crude membrane pellet was re-suspended in 0.32M sucrose, then centrifuged again at 100,000×g for 30 minutes to yield washed membrane pellet. Membrane pellet was resuspended in sterile PBS (pH7.4), quickly frozen, and kept in aliquots at −80 degrees Celsius. This preparation contains human brain cell membranes. Protein concentration was measured with BCA protein assay kit (Pierce Cat. No. 23227). Purified brain membranes were diluted to 0.01 mg/ml in PBS (pH 7.4) and then added to a 96 well polystyrene ELISA plate (NUNC Cat. No. 449824; 100 μl per well). Plates were incubated Over Night (ON) at 4 degrees Celsius. Following the incubation, the plate was washed consecutively, by immersion, with de-ionized water and PBS (pH 7.4). The ELISA plate was then blocked with nonfat milk (2%, 200 μl per well) for 2 hours at Room Temperature (RT). Following blocking, the plate was washed with de-ionized water then PBS (pH 7.4). GBAPs were dissolved and diluted in PBS (pH 6.5, supplemented with 0.1% BSA) at desired concentrations, added to the ELISA plates coated with brain membranes (100 μl per well) and incubated for 2 hours at RT with gentle shaking. Following incubation, the plate was washed with de-ionized water and three times with PBS (pH 6.5) plus Tween. Bound GBAP was detected by a monoclonal antibody specific for that GBAP, followed by incubation with secondary antibody conjugated to horseradish peroxidase (HRP). Antibody was diluted in PBS (pH6.5 supplemented with 1% BSA). Following each incubation with antibody, the plate was washed with de-ionized water and three times with PBS (pH6.5) wash buffer containing 0.1% Tween. The peroxidase substrate chromogen, TMB (Dako Cat. No. S1599) was added (100 μl per well) to the ELISA plate and incubated at room temperature. After 5 minutes ELISA Stop Solution (hydrochloric acid 1N, sulfuric acid 3N) was added (100 μl per well) to stop the peroxidase catalyzed colorimetric reaction. The Optical Density of the samples was measured at 450 nm using an ELISA plate reader (BioTek Synergy H1). Following color development, the % inhibition compared to control was determined. IC-50s were calculated using GraphPad Prism software.\nThe assay was performed as described in Example 49, with the following modifications. Following to coating the plates with purified human brain cell membranes, plates were washed as described. The compounds were dissolved in DMSO at 10 mM final concentration and further diluted prior to assay. DMSO concentration in the screening well was up to 2%. Individual compounds were co-incubated with Beta-amyloid peptides on plates coated with purified human brain membranes. Beta-amyloid (1-42) oligomers were prepared as described in Example 2. Beta-amyloid (1-40) from rPeptide (Cat No. A1153) was dissolved in DMSO, quickly frozen and kept in aliquots at −80 degrees Celsius. Beta-amyloid (1-42) oligomers or Beta-amyloid (1-40) dissolved in PBS (pH 6.5, supplemented with BSA, 0.1%) were added to the ELISA plate (100 μl per well) and incubated for 2 hours at RT with gentle shaking. Following the incubation, the plate was washed with de-ionized water and three times with PBS (pH 6.5) plus Tween. […]", "units": {"IC50": "µM"}, "values": [{"smiles": "Cc1ncn(-c2ccc(Nc3ncnc4cc(Cl)ccc34)cn2)c1C", "note": "[Compound 25, 7-chloro-N-(6-(4,5-dimethyl-1H-imidazol-1-yl)pyridin-3-yl)quinazolin-4-amine]", "IC50": 4.68}, {"smiles": "Clc1ccc2c(Nc3ccc(-n4cncn4)nc3)ccnc2c1", "note": "[Compound 44, N-(6-(1H-1,2,4-triazol-1-yl)pyridin-3-yl)-7-chloroquinolin-4-amine]", "IC50": 43}, {"smiles": "C/C(=N\\Nc1ncnc2cc(Cl)ccc12)c1ccc(-n2cc[n+](C)c2)nc1", "note": "[Compound 17, (E)-1-(5-(1-(2-(7-chloroquinazolin-4-yl)hydrazineylidene)ethyl)pyridin-2-yl)-3-methyl-1H-imidazol-3-ium iodide phosphoric acid salt]", "IC50": 27.9}, {"smiles": "C/C(=N\\Nc1ncnc2cc(F)ccc12)c1ccc(-n2cnc(C)c2C)nc1", "note": "[Compound 21, (E)-4-(2-(1-(6-(4,5-dimethyl-1H-imidazol-1-yl)pyridin-3-yl)ethylidene)hydrazineyl)-7-fluoroquinazoline]", "IC50": 5.95}, {"smiles": "C/C(=N\\Nc1ncnc2ccccc12)c1ccc(-n2cc(C)nc2C)nc1", "note": "[Compound 19, (E)-4-(2-(1-(6-(2,4-dimethyl-1H-imidazol-1-yl)pyridin-3-yl)ethylidene)hydrazineyl)quinazoline]", "IC50": 3.09}, {"smiles": "C/C(=N\\Nc1ncnc2cc(Cl)ccc12)c1ccc(-n2cc(C)nc2C)nc1", "note": "[Compound 27, (E)-7-chloro-4-(2-(1-(6-(2,4-dimethyl-1H-imidazol-1-yl)pyridin-3-yl)ethylidene)hydrazineyl)quinazoline hydrochloride]", "IC50": 2.23}, {"smiles": "CCN(CC)Cc1cccc(Nc2ccnc3cc(Cl)ccc23)c1", "note": "[Compound 42, 7-chloro-N-(3-((diethylamino)methyl)phenyl)quinolin-4-amine]", "IC50": 6.56}, {"smiles": "CC(=NNc1ncnc2cc(Cl)ccc12)c1ccnc(-n2cnc(C)c2C)c1", "note": "[Compound 28, 7-chloro-4-(2-(1-(2-(4,5-dimethyl-1H-imidazol-1-yl)pyridin-4-yl)ethylidene)hydrazineyl)quinazoline]", "IC50": 3.71}, {"smiles": "CC(=NNc1ccnc2cc(Cl)ccc12)c1ccc(-n2cnc(C)c2C)nc1", "note": "[Compound 22, 7-chloro-4-(2-(1-(6-(4,5-dimethyl-1H-imidazol-1-yl)pyridin-3-yl)ethylidene)hydrazineyl)quinoline]", "IC50": 1.78}, {"smiles": "C/C(=N\\Nc1ncnc2cc(F)ccc12)c1ccc(-n2cc[n+](C)c2)nc1", "note": "[Compound 26, (E)-1-(5-(1-(2-(7-fluoroquinazolin-4-yl)hydrazineylidene)ethyl)pyridin-2-yl)-3-methyl-1H-imidazol-3-ium phosphoric acid salt]", "IC50": 1.51}, {"smiles": "Fc1cc(/C=N/Nc2ccnc3cc(Cl)ccc23)ccc1-n1ccnc1", "note": "[Compound 35, (E)-7-chloro-4-(2-(3-fluoro-4-(1H-imidazol-1-yl)benzylidene)hydrazineyl)quinoline hydrochloride]", "IC50": 41.5}, {"smiles": "C/C(=N\\Nc1ncnc2cc(Cl)ccc12)c1ccc(-n2cc(C)nc2C)nc1", "note": "[Compound 18, (E)-7-chloro-4-(2-(1-(6-(2,4-dimethyl-1H-imidazol-1-yl)pyridin-3-yl)ethylidene)hydrazineyl)quinazoline phosphoric acid salt]", "IC50": 17.3}]}]}
